Values after ≈ are worked out from the molar mass of the structure shown. “Also recorded” adds a separate entry of the source. Read-outs that look alike come from different tables or passages of the source. Values belong to the compound of their own block, whether it stands above or below them.
Key:
Ellen strain of VZV = test: Plaque reduction assay for Varicella-Zoster virus in HFF cells; format: cell-based; conditions: 10 days
Description: (§1) Two days prior to use, human foreskin fibroblast (HiFF) cells were plated into six well plates and incubated at 37° C. with 5% CO2 and 90% humidity. On the date of assay, the drug was made upon MEM with 2% FBS then serially diluted 1:5 in MEM using six concentrations of drug. The initial starting concentration was 100/μg/ml down to 0.03 μg/ml. The virus used for infection was diluted in MEM containing 10% FBS to a desired concentration which gave 20-30 plaques per well. The media was aspirated from the wells and 0.2 ml of virus was added to each well in triplicate with 0.2 ml of media being added to drug toxicity wells. The plates were then incubated for one hour with shaking every fifteen minutes. After incubation, MEM containing the various drug concentrations was added to appropriate wells in a volume of 2.0 ml. Additional media was added again on day five and the cultures incubated for a total of 10 days. At the end of the incubation, the liquid was then aspirated off, stained with 6% neutral red solution for six hours, washed and plaques enumerated using a stereomicroscope. The results are compared with untreated control wells, and EC50 and CC50 values calculated.

[1] = Neutral red uptake cytotoxicity assay; format: cell-based; conditions: human, uninfected human foreskin fibroblast (HFF) cells
Description: as §1, with “The results are compared with untreated control wells, and EC50 and CC50 values calculated.” left out

EBV [2] = test: Anti-EBV slot blot assay of EBV DNA in H1 cells; format: cell-based, Epstein-Barr virus
Description: A high yield of BBV producing cell line H1 derived from human P3HR1 cells was used in this study. Cells were cultured in RPMIf medium supplemented with 10% dialyzed fetal bovine serum and 100 μg/ml Kanamycin and were grown at 37° C. in a humidified incubator containing 5% CO2.
H1 cells were maintained in logarithmic phase of growth for two days prior to the initiation of treatment. The H1 cells were seeded in 24 well plates at the density of 2×10^5 cells per well in 2 ml of fresh medium with or without drug treatment and were incubated at 37° C. for 5 days. Following the period of drug treatment the cells were pelleted and used to determine the inhibitory effect of drug on EBV DNA by slot blot assay.
Autoradiographfic results were anlayzed by densitometry. […] See, for example, Yao, et al., Antimic. Agzents and Chemo., July, 1993, p.

cell growth = test: Cytotoxicity (cell growth)
mitochondrial DNA = test: mt DNA content (toxicity to mitochondria, slot blot rehybridization); format: cell-based, human
From the text: Autoradiographfic results were anlayzed by densitometry. […] See, for example, Yao, et al., Antimic.

[3] = Pharmacokinetics in BDF1 mice; conditions: 50 mg/kg po versus ip/iv, preliminary
Description: At the times indicated in FIG. 5, blood was drawn into a heparinized capillary from the retro orbital plexus of female BDF1 mice. The plasma was separated from the formed elements by centrifugation. Then 100 μl of plasma was mixed with an equal volume of 30% trichloracetic acid and kept on ice for 10 minutes. […] The aqueous phase was moved to a clean tube and extracted again with the trioctylamine:freon mixture. Then 50 μl of the neutralized aqueous phase was injected onto a Perkin Elmer HPLC system. The samples were eluted from an Altech C18 column with an isocratic solvent system of water at 2 ml per min. The concentrations of the unknown samples were determined by comparison with standards of known concentrations.

[4] = Stability at different pH's (HPLC); conditions: for stability (in words): pH 2
Description: In order to explore the possibility of using L-I-OddU and L-Br-OddU orally for the treatment of EBV-associated diseases, its stability at different pH levels is important. L-I-OddU was exposed to different pH solutions as indicated for 3 hr at 37°. The percentage of compound remaining as L-I-OddU was examined using HPLC with a C18 column.

[5] = test system: lactate accumulation in the medium; test: Lactate accumulation in medium of drug treated cultures
EBV [6] = conditions: reported in Chu et al. PCT application; cited from earlier work
HBV = HBV assay; format: cell-based
From the text: (§2) Plaque reduction assays used for HSV-1, HSV-2 and CMV have been previously described. See, Gao, et al., Antimic. Agents and Chemo., May, 1990, p. 808-812 (HSV-Plaque); Cheng, et al., Proc. Natl. Acad. Sci. USA, vol. 80, 2767-2770 (May 1983) (CMV plaque reduction assay). The methods for testing against EBV, HBV, and HIV were also used as described previously. See, Yao, et al., Antimic. Agents and Chemo., July, 1993, p.

HIV = HIV assay; format: cell-based; conditions: Human immunodeficiency virus 1
From the text: as §2

HSV-2 = test: Plaque reduction assay HSV-2; format: cell-based; conditions: Human alphaherpesvirus 2; HSV-2, plaque reduction
From the text: as §2

CMV = test: Plaque reduction assay CMV; format: cell-based; conditions: Human betaherpesvirus 5
From the text: as §2

HSV-1 = test: Plaque reduction assay HSV-1; format: cell-based; conditions: Human alphaherpesvirus 1; HSV-1, plaque reduction
From the text: as §2

[7] = Human alphaherpesvirus 3, 240 h, read-out: EC50
[8] = H1 cells, 5 days, EC50 of Table 2
[9] = human gammaherpesvirus 4, 120 h, H1 cells, 5 days, EC50 of Table 2, read-out: Anti-EBV EC50
[10] = read-out: Cytotoxicity IC50, cell growth
[11] = H1 cells, 5 days, EC50 of Table 2, read-out: Anti-EBV EC50

- Anti-EBV EC50 (EBV [2]; [8]): Inactive
Compound: O=c1[nH]c(=O)n(C2COC(CO)O2)cc1I [D-I-OddU, reference compound]

- efficiency of oral uptake [3]: about 60%
- EC50 (EBV [2]; [11]): 200 nM
- EC50 (EBV [2]; H1 cells, 5 days, second EC50 column of Table 2, read-out: Anti-EBV EC50): 2000 nM
- EC50 (Ellen strain of VZV): 0.8 µg/mL (≈ 2.73 µM)
- % Remaining ([4]; pH1, 3 hr at 37°): 105%
- stability (in words) [4]: stable
- induction of lactate accumulation in the medium [5]: lack of induction
Compound: O=c1[nH]c(=O)n([C@@H]2CO[C@H](CO)O2)cc1Br [L-Br-OddU]
- IC50 (cell growth; [10]): > 100 µM
- anti-EBV activity (in words) (EBV [2]): most potent
- mt DNA Content ID50 (mitochondrial DNA): Inactive

- EC50 (EBV [2]; [9]): 3000 nM
- EC50 (Ellen strain of VZV; [7]): 27.9 µg/mL (≈ 112 µM)
Compound: O=c1[nH]c(=O)n([C@@H]2CO[C@H](CO)O2)cc1Cl [L-CI-OddU, (2S,4S)-1-[2-(Hydroxymethyl)-1,3-dioxolan-4-yl]-5-chlorouracil]
- IC50 (cell growth; human, H1 cells): > 100 µM
- mt DNA Content ID50 (mitochondrial DNA): Inactive
- CC50 at 10 days [1]: > 100 µg/mL

- EC50 (EBV [2]; [9]): 50000 nM
Compound: O=c1[nH]c(=O)n([C@@H]2CO[C@H](CO)O2)cc1F [L-F-OddU, (2S,4S)-1-[2-(Hydroxymethyl)-1,3-dioxolan-4-yl]-5 fluorouracil]
- IC50 (cell growth; human, H1 cells): > 100 µM
- mt DNA Content ID50 (mitochondrial DNA): Inactive

- EC50 (HIV): > 100 µM
- EC50 (HSV-2): > 50 µM
- EC50 against EBV relative to L-FMAU (EBV [2]; comparison with L-FMAU): at least four times lower than L-FMAU
- EC50 (EBV [2]; [9]): 100 nM
- EC50 (EBV [2]; human gammaherpesvirus 4, 120 h, H1 cells, 5 days, second EC50 column of Table 2, read-out: Anti-EBV EC50): 400 nM
- EC50 (EBV [2]; human gammaherpesvirus 4, EBV, Table 3, read-out: EC50): 100 nM
- EC50 (Ellen strain of VZV; [7]): 4.2 µg/mL (≈ 12.4 µM)
- EC50 (CMV): > 10 µM
- % Remaining ([4]; pH1, 3 hr at 37°): 102%
- stability (in words) [4]: stable
- % Remaining ([4]; pH2, 3 hr at 37°): 102%
- % Remaining ([4]; pH5, 3 hr at 37°): 102%
- % Remaining ([4]; pH7, 3 hr at 37°): 99%
- % Remaining ([4]; pH9, 3 hr at 37°): 100%
- EC50 (HSV-1): 50 µM
- induction of lactate accumulation in the medium [5]: lack of induction
- EC50 (HBV; Hepatitis B virus, HBV): > 10 µM
Compound: O=c1[nH]c(=O)n([C@@H]2CO[C@H](CO)O2)cc1I [L-I-OddU, (2S,4S)-1-[2-(Hydroxymethyl)-1,3-dioxolan-4-yl]-5-iodouracil]
- IC50 (cell growth; human, H1 cells): > 100 µM
- anti-EBV activity (in words) (EBV [2]): most potent; also recorded: slightly more potent than L-Br-OddU
- mt DNA Content ID50 (mitochondrial DNA): Inactive
- activity against HBV (in words) (HBV): little activity
- CC50 at 10 days [1]: > 100 µg/mL

- EC50 (EBV [2]; [9]): > 50000 nM
Compound: O=c1ccn([C@@H]2CO[C@H](CO)O2)c(=O)[nH]1 [L-OddU, (2S,4S)-1-[2-(Hydroxymethyl)-1,3-dioxolan-4-yl]uracil]
- IC50 (cell growth; human, H1 cells): > 100 µM
- mt DNA Content ID50 (mitochondrial DNA): Inactive

Continued, compound first:

Compound: Nc1nc2c(ncn2COCCO)c(=O)[nH]1 [ACV (acycloguanine), acyclovir, reference compound]
- EC50 (Ellen strain of VZV; [7]): 0.6 µg/mL (≈ 2.66 µM)
- CC50 at 10 days [1]: > 100 µg/mL

Compound: O=c1[nH]c(=O)n(C2COC(CO)O2)cc1Br [D-Br-OddU, reference compound]
- Anti-EBV EC50 (EBV [2]; [8]): Inactive

Compound: Nc1nc(O)c2ncn(COC(CO)CO)c2n1 [DHPG, gancyclovir, reference compound]
- IC50 (cell growth; human, H1 cells): 75 µM
- EC50 (EBV [2]; [9]): 5000 nM
- mt DNA Content ID50 (mitochondrial DNA): Inactive

Compound: O=c1[nH]c(=O)n([C@@H]2CO[C@H](CO)O2)cc1C(F)(F)F [L-CF3-OddU, (2S,4S)-1-[2-(Etydroxymethyl)-1,3-dioxolan-4-yl]-5-trifluoromethyluracil]
- IC50 (cell growth; [10]): > 100 µM
- EC50 (EBV [2]; [11]): 3000 nM
- mt DNA Content ID50 (mitochondrial DNA): Inactive

Compound: Cc1cn([C@H]2O[C@@H](CO)[C@H](O)[C@H]2F)c(=O)[nH]c1=O [L-FMAU, 2′-fluoro-5-methyl-β-L-arabinofuranosyluridine, reference compound]
- activity against EBV (PCT/US95/01253) (EBV [6]): good activity
- anti-EBV activity (in words) (EBV [2]): active
- activity against HBV (in words) (HBV): active

Compound: Nc1ccn([C@H]2CC[C@@H](CO)O2)c(=O)n1 [ddC, reference compound]
- IC50 (cell growth; [10]): 20 µM
- Anti-EBV EC50 (EBV [2]; [8]): Inactive
- IC50 (mitochondrial DNA; read-out: mt DNA Content ID50): 20 nM

Source: patent US20010018440A1, “L-beta-dioxolane uridine analogs and methods for treating and preventing virus infections” (Yale University and The University of Georgia Research …, priority 1996, published 2001)
